Data reported in patent publication US8367004B2, “Apparatus and methods for nanoparticle generation and process intensification of transport and reaction systems” (Microfluidics International Corporation, priority 2008, dated 2013).
Values joined by “and” are separate entries in the source; they are usually repeats but may differ in a detail not shown here. Equal values may be shown once. One block for each compound: values may come before it.

Assays:
Assay type in all cases: physicochemical
[1] = Particle size analysis of drug nanosuspensions by light scattering
Procedure: Crystallization experiments were performed using an exemplary reaction processor of the type depicted in FIG. 3. The solvent phase was fed into an intensifier pump using a peristaltic pump. The water phase was placed in the inlet reservoir and gravity fed. The two streams were blended at the inlet to the intensifier pump, noting that a low level of macro-mixing will occur at this process stage.
The total flow rate through the system was controlled by the microreactor design and process pressure. By varying the flow rate through the peristaltic pump at each processing pressure, various mixing ratios of the two streams were achieved. The following solvent-to-water volume ratios were examined: 1:3, 1:4, and 1:10. Equivalently, the water concentrations in the final mixture by weight were […], respectively. A total of 250 ml were processed in each experiment.
In addition to super-saturation, the effect of process pressure, NFN concentration in the solvent stream, and the presence of a surfactant were investigated. […] The concentration of NFN in DMSO varied from 5 to 20 mg NFN/ml DMSO. To determine if a surface active agent could help control particle size, a 1% aqueous solution of Suluton (BASF) was used to replace water as the anti-solvent, the concept being that the hydrophobic group of this amphoteric molecule would interact with the crystal surface at some threshold size, forming a barrier to further transport to and/or along the surface.
To provide appropriate controls for comparison, additional crystal production experiments were conducted by mixing the NFN/DMSO solution with water in a beaker at very low shear conditions. After mixing to obtain uniformity, NFN was allowed to form crystals under quiescent conditions. Size and shape characterization studies were performed. The crystals were then suspended in a saturated solution to conduct particle size reduction experiments under high shear rates using standard Microfluidizer® technology. The purpose was to compare this size reduction process on already grown crystals (“top-down” process) with the in situ process of growing crystal to the desired size with the apparatus/system of the present disclosure (“bottom-up” process).
The particle size distribution of the nano-suspensions was measured by two different methods: • (a) Light scattering using a Horiba 910 particle size analyzer: This instrument has a wide dynamic range of between 20 nm-1000 microns. • (b) Dynamic light scattering using a Malvern NanoS particle size analyzer: This instrument has a dynamic range of 0.5 nm-6 microns
(§1) Crystallization experiments using the disclosed apparatus/system were conducted at 138 and 83 MPa (20,000 and 12,000 psi) process pressures. […] The solvents were either dimethyl sulfoxide (DMSO) or N-Methyl-2-Pyrrolidone (NMP), and the antisolvent was water (see TABLE 3). Of note, alternative solvents include methanol, ethanol, acetone, dichloromethane, octanol and isopropyl alcohol, and alternative antisolvents include hexane and heptane. The water volume flow rate was typically 3-10 times the solvent volume flow rate, resulting in supersaturation between 1.4 and 9.
For the “top down” control experiments, suspensions of micron size crystals were processed with a conventional Microfluidizer® high shear processor. These crystals had been grown under no shear conditions by pouring the solvent and antisolvent streams into a beaker and then allowing the crystals to grow without stirring the fluids.
(§2) Material characterization was performed in the same manner as described above with reference to Example 1.

[2] = Electron microscopy of particle dimensions and shape
Procedure: A Hitachi S-4800 field-emission SEM was used to examine the surface structure and shape of the drug particles and also to verify qualitatively the particle size obtained from the particle size analyzers.
as §2

[3] = Stability of nanosuspensions
Procedure: as §1
A surfactant was added to the antisolvent (water) in order to: (a) stabilize the nanoparticles and limit their growth, and (b) minimize agglomeration of the particles and to thereby create a stable suspension. Two non-ionic surfactants were used, Solutol® HS 15 (polyoxyethylene esters of 12-hydroxystearic acid; […]) and a hydrophobically modified inulin polymeric surfactant, INUTEK SP1 (Orafti).

[4] = Mass transfer study, octanol phase to water phase; details: transfer from an octanol phase to a water phase
Procedure: The interfacial area in process intensification equipment can be quantified by performing mass transfer studies. In particular, a solute is introduced into the system of interest (e.g. methanol and soybean oil) and the mass transfer rate of this solute from one phase to the other is measured. The interfacial area can then be calculated. In order to accomplish this determination, it is necessary to have an estimate of the mass transfer coefficients in the individual phases—which can be determined through bench-top experiments. Reactant systems may be processed in the disclosed apparatus/system and a measurement of inlet concentration of the solute is made. The system is run at different flow rates until the concentration at the outlet is equal to the equilibrium concentration. […] The interfacial area can then be obtained.

[5] = Solubility of NFN in water/DMSO mixtures (batch, gravimetric); details: for NFN solubility / % NFN precipitation from saturated DMSO solution: 20° C.
Procedure: Water was mixed with a DMSO-NFN solution of known concentration, while maintaining miscible conditions, to obtain a super-saturation state. […] The crystals were filtered from the liquid, then dried in a vacuum oven for about 10 hours at 90° C., and weighed. The filtered liquid phase was evaporated to dryness and the mass of the solid residue determined gravimetrically. The mass balance of the NFN (total amount recovered/amount dissolved) was also determined to establish precision of the solubility limit estimate. The closure was always greater than 90 percent.
(§3) The solubility data were used to estimate super-saturation ratios and the theoretical efficiency of the process, which is defined as the percentage of the drug present in the solvent that precipitates as the solvent and antisolvent streams mix.

[6] = XRD percent crystallinity and crystallite size
Procedure: The samples were analyzed using a Rigaku Ultima III diffractometer. XRD analysis was used to investigate the effect of the processing conditions on the crystalline characteristics, i.e., structure, percent of crystallinity and crystallite size of NFN.

[7] = Theoretical efficiency of solvent/antisolvent crystallization; details: 138 MPa
Excerpt: as §3

[8] = overnight, particles produced with disclosed system
[9] = particles produced with control method
[10] = Disclosed System, solvent, surfactant, pressure per Table 3
[11] = suspension from Disclosed System
[12] = Control (beaker, no shear), Solutol, SLS
[13] = 138 MPa, 5 mg NFN/ml DMSO, DMSO:water 1:4, passed twice, Horiba
[14] = NFN nanosuspension from disclosed system, SEM

- median particle size ([1]; Disclosed System, INUTEK (DMSO), DLS): 332 nm
- median particle size ([1]; Disclosed System, INUTEK (NMP), DLS): 379 nm
- median particle size ([1]; Disclosed System, Solutol (DMSO), DLS): 90 nm
- median particle size ([1]; Disclosed System, Solutol (NMP), DLS): 183 nm
- particle size ([1]; INUTEK as surfactant): 332-379 nm
- initial particle size ([1]; Solutol as surfactant, DMSO and NMP): about 90 nm
- Shape ([2]; Disclosed System, INUTEK (DMSO)): Needle
- Shape ([2]; Disclosed System, INUTEK (NMP)): Needle
- needle length [2, 8]: 10-20 microns
- needle width [2, 8]: 0.5-2 microns
- needle length [2, 9]: hundreds of microns
- needle width [2, 9]: tens of microns
SMILES: CCOC(=O)N1CCC(=C2c3ccc(Cl)cc3CCc3cccnc32)CC1 [Loratadine]

- median particle size [1, 10]: 50-100 nm
- Shape ([2]; Disclosed System): Spheroidal
- stability of nanosuspension ([3]; in solvent and antisolvent mixture, and in water after solvent removed): stable
- Stability [3, 11]: Stable
SMILES: CC[C@H]1OC(=O)[C@H](C)[C@@H](O[C@H]2C[C@@](C)(OC)[C@@H](O)[C@H](C)O2)[C@H](C)[C@@H](O[C@@H]2O[C@H](C)C[C@H](N(C)C)[C@H]2O)[C@](C)(O)C[C@@H](C)CN(C)[C@H](C)[C@@H](O)[C@]1(C)O [Azithromycin]

- interfacial transfer coefficients [4]: ≤ 0.5 m/s
SMILES: CC(=O)Oc1ccccc1C(=O)O [aspirin]

- Median Particle Size (needle length) [1, 12]: 20,000 nm
- Median Particle Size (needle width) [1, 12]: 5000 nm
- median particle size ([1]; Control with site reduction after 25 passes, SLS): 1200 nm
- particles by volume in the range of 2.5-6 microns ([1]; Disclosed System): about 5%
- larger peak of bimodal particle size distribution ([1]; Disclosed System, SLS): about 1 micron
- smaller peak of bimodal particle size distribution ([1]; Disclosed System, SLS): about 340 nm
- median particle size [1, 10]: 767 nm
- needle length ([1]; control conditions (beaker)): about 20 microns
- needle width ([1]; control conditions (beaker)): about 5 microns
- population of particles with sizes in the range of 4-6 microns ([1]; control sample after 25 passes): about 5%
- median particle size ([1]; control sample after 25 passes through standard Microfluidizer processor): 1.2 microns
- Shape ([2]; Control): Needle
- Stability ([3]; Control): Stable
- Stability ([3]; Control with site reduction after 25 passes): Stable
- Stability [3, 11]: Stable
- Stability ([3]; suspension from Disclosed System, listed as oxycarbazepine): stable
SMILES: NC(=O)N1c2ccccc2CC(=O)c2ccccc21 [Oxycarbazepine]

- NFN solubility ([5]; 0.00 wt % water in water/DMSO solution): 21.00 mg drug/g solution
- % NFN precipitation from saturated DMSO solution ([5]; 0.00 wt % water): 0.00%
- NFN solubility ([5]; 9.17 wt % water in water/DMSO solution): 7.18 mg drug/g solution
- % NFN precipitation from saturated DMSO solution ([5]; 9.17 wt % water): 43.39%
- NFN solubility ([5]; 28.04 wt % water in water/DMSO solution): 1.57 mg drug/g solution
- NFN solubility ([5]; 47.62 wt % water in water/DMSO solution): 0.86 mg drug/g solution
- % NFN precipitation from saturated DMSO solution ([5]; 47.62 wt % water): 91.43%
- % of NFN that precipitates ([5]; 50 wt % water): about 92%
- NFN solubility ([5]; 57.69 wt % water in water/DMSO solution): 0.64 mg drug/g solution
- % NFN precipitation from saturated DMSO solution ([5]; 57.69 wt % water): 92.86%
- NFN solubility ([5]; 73.17 wt % water in water/DMSO solution): 0.71 mg drug/g solution
- % NFN precipitation from saturated DMSO solution ([5]; 73.17 wt % water): 89.52%
- NFN solubility ([5]; 90.19 wt % water in water/DMSO solution): 0.00 mg drug/g solution
- % NFN precipitation from saturated DMSO solution ([5]; 90.19 wt % water): 100.00%
- solubility limit of NFN in DMSO ([5]; ambient temperature): about 21 mg NFN/g DMSO
- reduction of NFN solubility ([5]; dilution of DMSO solution to 28 wt % water): over 13 times
- median particle size ([1]; 60 MPa, 10 mg/ml DMSO, DMSO:water 1:4, passed twice): approximately 320 nm
- median particle size [1, 13]: 186 nm
- peak of particle size distribution [1, 13]: 166 nm
- median particle size ([1]; 138 MPa, DMSO:water 1:4, passed twice, 5 mg NFN/g DMSO): approximately 190 nm
- median particle size ([1]; 138 MPa, DMSO:water 1:4, passed twice, 20 mg NFN/g DMSO): ~340 nm
- median particle size ([1]; 140 MPa, 10 mg/ml DMSO, DMSO:water 1:4, passed twice): about 200 nm
- median particle size ([1]; NFN nanosuspensions, range over all Example 1 experiments): 170-350 nm
- median particle size ([1]; control crystals after 30 passes at 207 MPa in standard Microfluidizer (top-down)): 428 nm
- median particle size ([1]; with Suluton surfactant): 204 nm
- median particle size ([1]; without surfactant): 209 nm
- needle length [2, 14]: 200-300 nm
- needle width [2, 14]: 70-100 nm
- particle length ([2]; crystallized in low shear environment (control)): up to 1 mm
- Average Crystallite Size ([6]; As purchased): 441 Å
- Percent Crystallinity (±4%) ([6]; As purchased): 84.1%
- Average Crystallite Size ([6]; Re-crystallized (high shear)): 239 Å
- Percent Crystallinity (±4%) ([6]; Re-crystallized (high shear)): 79.7%
- Average Crystallite Size ([6]; Re-crystallized (low shear)): 275 Å
- Percent Crystallinity (±4%) ([6]; Re-crystallized (low shear)): 78% and 77.8%
- Average Crystallite Size ([6]; Re-crystallized (no shear)): 727 Å
- Percent Crystallinity (±4%) ([6]; Re-crystallized (no shear)): 85% and 85.1%
- theoretical efficiency (percentage of NFN that precipitates) ([7]; supersaturation ratio about 1.5): 32%
- theoretical efficiency (percentage of NFN that precipitates) ([7]; supersaturation ratio about 7): 85%
SMILES: CCn1cc(C(=O)O)c(=O)c2cc(F)c(N3CCNCC3)cc21 [NFN, Norfloxacin]
